Columns and labels:
[1] = target: wild-type Drosophila melanogaster EcR (DmEcR; GAL4-EcR DEF with VP16-RXR-USP chimera) (Drosophila melanogaster, UniProt P34021); assay: Two-hybrid gene switch assay, luciferase reporter, wild-type DmEcR, mouse NIH3T3 cells; type: cell-based
[2] = target: T1, MsEcR (GAL4-EcR DEF with VP16-RXR-USP chimera) (Manduca sexta, UniProt P49883); assay: Two-hybrid gene switch assay, luciferase reporter, MsEcR, mouse NIH3T3 cells
T1 sequence (P49883 1-556): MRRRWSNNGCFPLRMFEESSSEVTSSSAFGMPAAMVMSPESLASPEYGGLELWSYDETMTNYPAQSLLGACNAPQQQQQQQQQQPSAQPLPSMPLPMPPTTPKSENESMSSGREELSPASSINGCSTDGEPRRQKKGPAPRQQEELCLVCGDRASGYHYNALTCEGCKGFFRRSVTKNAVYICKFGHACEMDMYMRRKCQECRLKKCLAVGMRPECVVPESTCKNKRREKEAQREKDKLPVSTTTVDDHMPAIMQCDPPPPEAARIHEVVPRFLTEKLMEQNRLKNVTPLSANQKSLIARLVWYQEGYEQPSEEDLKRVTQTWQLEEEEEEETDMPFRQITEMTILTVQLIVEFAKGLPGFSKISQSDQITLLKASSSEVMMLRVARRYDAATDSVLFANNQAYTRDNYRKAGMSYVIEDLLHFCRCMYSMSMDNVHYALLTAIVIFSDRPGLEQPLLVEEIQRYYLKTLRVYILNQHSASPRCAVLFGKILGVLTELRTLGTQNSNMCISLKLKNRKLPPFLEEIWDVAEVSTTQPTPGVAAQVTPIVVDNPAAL
T1 sequence (P28702 1-533 partner): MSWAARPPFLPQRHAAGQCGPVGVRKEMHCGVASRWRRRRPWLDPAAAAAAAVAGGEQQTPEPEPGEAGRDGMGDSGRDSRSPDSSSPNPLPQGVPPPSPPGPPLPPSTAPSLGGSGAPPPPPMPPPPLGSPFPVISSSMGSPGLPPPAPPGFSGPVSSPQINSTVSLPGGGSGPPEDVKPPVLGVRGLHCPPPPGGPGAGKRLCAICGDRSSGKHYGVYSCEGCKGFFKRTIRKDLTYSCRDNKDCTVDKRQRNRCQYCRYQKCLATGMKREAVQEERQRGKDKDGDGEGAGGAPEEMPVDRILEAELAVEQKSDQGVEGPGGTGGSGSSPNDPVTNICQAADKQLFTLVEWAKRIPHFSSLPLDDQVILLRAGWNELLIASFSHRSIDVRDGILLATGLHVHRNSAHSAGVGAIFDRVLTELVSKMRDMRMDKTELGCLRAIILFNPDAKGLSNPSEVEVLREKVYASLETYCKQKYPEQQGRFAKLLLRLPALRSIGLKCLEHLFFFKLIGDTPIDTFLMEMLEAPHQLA

[3] = tested on: NcEcR (GAL4-EcR DEF with VP16-RXR partner); assay: Two-hybrid gene switch assay, luciferase reporter, NcEcR, mouse NIH3T3 cells
[4] = EC50, FIG. 14A/14B, GAL4-EcR(DEF) with VP16-RXR-USP chimera
[5] = EC50, FIG. 13A/13B, GAL4-EcR(DEF) with VP16-RXR-USP chimera
[6] = EC50, FIG. 16, GAL4-EcR (DEF) / VP16-RXR-USP chimera
[7] = EC50, FIG. 15, GAL4-EcR (DEF) / VP16-RXR-USP chimera

Chain of wild-type Drosophila melanogaster EcR (DmEcR; GAL4-EcR DEF with VP16-RXR-USP chimera) (P34021 with tags, fused parts or gaps limits assumed): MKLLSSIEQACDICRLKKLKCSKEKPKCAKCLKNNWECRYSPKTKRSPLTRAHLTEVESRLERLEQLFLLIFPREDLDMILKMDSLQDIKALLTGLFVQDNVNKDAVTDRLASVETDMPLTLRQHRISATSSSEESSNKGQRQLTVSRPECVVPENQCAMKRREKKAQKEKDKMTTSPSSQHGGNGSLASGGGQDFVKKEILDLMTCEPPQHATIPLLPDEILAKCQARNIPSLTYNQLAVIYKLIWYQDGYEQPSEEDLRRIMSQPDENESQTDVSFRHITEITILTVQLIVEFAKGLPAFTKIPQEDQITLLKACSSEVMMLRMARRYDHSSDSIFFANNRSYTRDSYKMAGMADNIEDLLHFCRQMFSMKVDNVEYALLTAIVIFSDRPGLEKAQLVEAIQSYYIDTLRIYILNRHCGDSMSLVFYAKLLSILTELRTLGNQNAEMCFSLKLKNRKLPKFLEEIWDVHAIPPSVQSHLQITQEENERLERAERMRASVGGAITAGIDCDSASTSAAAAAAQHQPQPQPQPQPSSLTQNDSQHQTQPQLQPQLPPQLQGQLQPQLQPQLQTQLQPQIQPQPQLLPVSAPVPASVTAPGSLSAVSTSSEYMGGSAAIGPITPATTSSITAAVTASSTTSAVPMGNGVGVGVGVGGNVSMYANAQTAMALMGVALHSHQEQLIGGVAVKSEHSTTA

CC(C)(O)CC[C@@H](OC(=O)c1ccc[nH]1)[C@](C)(O)[C@H]1CC[C@@]2(O)C3=CC(=O)[C@@H]4C[C@@H](O)[C@@H](O)C[C@]4(C)[C@H]3CC[C@]12C
EC50 [1, 4]: ~20 µM
EC50 [2, 5]: > 33 µM
EC50 ([3]; FIG. 14A/14B, GAL4-EcR(DEF)): ~5 µM

CC(=O)OCC(=O)O[C@H](CCC(C)(C)O)[C@](C)(O)[C@H]1CC[C@@]2(O)C3=CC(=O)[C@@H]4C[C@@H](O)[C@@H](O)C[C@]4(C)[C@H]3CC[C@]12C [20-hydroxyecdysone 22-acetoxyacetate]
EC50 [1, 4]: ~20 µM
EC50 [2, 5]: ~10 µM
EC50 ([3]; FIG. 14A/14B, GAL4-EcR(DEF)): 0.755 µM

CC(C)(O)CC[C@@H](O)[C@](C)(O)[C@H]1CC[C@@]2(O)C3=CC(=O)[C@@H]4C[C@H]5OC(C)(C)O[C@H]5C[C@]4(C)[C@H]3CC[C@]12C [20-hydroxyecdysone-2,3-acetonide]
EC50 [1, 4]: > 33 µM
EC50 [2, 5]: ~10 µM
EC50 ([3]; FIG. 14A/14B, GAL4-EcR(DEF)): 2.9 µM

C[C@@H](CO)CC[C@@H](O)[C@](C)(O)[C@H]1CC[C@@]2(O)C3=CC(=O)[C@@H]4C[C@@H](O)[C@@H](O)C[C@]4(C)[C@H]3CC[C@]12C [(25R)-inokosterone]
EC50 [1, 4]: 9.46 µM
EC50 [2, 5]: ~10 µM
EC50 ([3]; FIG. 14A/14B, GAL4-EcR(DEF)): 0.867 µM

C[C@H](CO)CC[C@@H](O)[C@](C)(O)[C@H]1CC[C@@]2(O)C3=CC(=O)[C@@H]4C[C@@H](O)[C@@H](O)C[C@]4(C)[C@H]3CC[C@]12C [(25S)-inokosterone]
EC50 [1, 4]: ~20 µM
EC50 [2, 5]: ~10 µM
EC50 ([3]; FIG. 14A/14B, GAL4-EcR(DEF)): ~1.5 µM

CC(C(O)CCC(C)(C)O)C1CCC2(O)C3=CC(=O)C4CC(O)CCC4(C)C3CCC12C (stereo not drawn) [Compound 2-deoxyecdysone]
EC50 [1, 4]: > 33 µM
EC50 [2, 5]: > 33 µM
EC50 ([3]; FIG. 14A/14B, GAL4-EcR(DEF)): ~6 µM

CC(C)(O)CC[C@@H](O)[C@](C)(O)[C@H]1CC[C@@]2(O)C3=C[C@H](O)[C@@H]4C[C@@H](O)[C@@H](O)C[C@]4(C)[C@H]3CC[C@]12C [Compound 6a-hydroxy-20-hydroxyecdysone]
EC50 [1, 4]: > 33 µM
EC50 [2, 5]: > 33 µM
EC50 ([3]; FIG. 14A/14B, GAL4-EcR(DEF)): ~10 µM

CC(C)(O)CC[C@@H](O)[C@](C)(O)[C@H]1CC[C@@]2(O)C3=C[C@@H](O)[C@@H]4C[C@@H](O)[C@@H](O)C[C@]4(C)[C@H]3CC[C@]12C [Compound 6b-hydroxy-20-hydroxyecdysone]
EC50 [1, 4]: ~20 µM
EC50 [2, 5]: ~12 µM
EC50 ([3]; FIG. 14A/14B, GAL4-EcR(DEF)): 1.7 µM

CC(=O)O[C@H](CCC(C)(C)O)[C@](C)(O)[C@H]1CC[C@@]2(O)C3=CC(=O)[C@@H]4C[C@@H](O)[C@@H](O)C[C@]4(C)[C@H]3CC[C@]12C [Compound 20-hydroxyecdysone-22-acetate]
EC50 [1, 4]: > 33 µM
EC50 [2, 5]: ~2 µM
EC50 ([3]; FIG. 14A/14B, GAL4-EcR(DEF)): 2.44 µM

CC(C)(O)CCC(=O)[C@](C)(O)[C@H]1CC[C@@]2(O)C3=CC(=O)[C@@H]4C[C@@H](O)[C@@H](O)C[C@]4(C)[C@H]3CC[C@]12C [Compound 22-dehydro-20-hydroxyecdysone]
EC50 [1, 4]: ~20 µM
EC50 [2, 5]: 10.3 µM
EC50 ([3]; FIG. 14A/14B, GAL4-EcR(DEF)): 1.84 µM

CC(C)(O)CC[C@@H](O)[C@](C)(O)[C@H]1CC[C@@]2(O)C3=CC(=O)[C@@H]4C[C@@H](O)[C@@H](O)C[C@]4(C)C3=CC[C@]12C [Compound 25-hydroxydacryhainansterone]
EC50 [1, 4]: > 33 µM
EC50 [2, 5]: ~10 µM
EC50 ([3]; FIG. 14A/14B, GAL4-EcR(DEF)): 1.26 µM

CC(C)CC[C@@H](O)[C@](C)(O)[C@H]1CC[C@@]2(O)C3=CC(=O)[C@@H]4C[C@@H](O)[C@@H](O)C[C@]4(C)[C@H]3[C@H](O)C[C@]12C [ajugasterone C]
EC50 [1, 4]: ~2 µM
EC50 [2, 5]: ~7 µM
EC50 ([3]; FIG. 14A/14B, GAL4-EcR(DEF)): 0.08 µM

CC(C)(O)C(CCC(C)(O)C1CCC2(O)C3=CC(=O)C4CC(O)C(O)CC4(C)C3CCC12C)OC(=O)c1ccc[nH]1 (stereo not drawn) [canescensterone]
EC50 [1, 4]: ~0.5 µM
EC50 [2, 5]: > 10 µM
EC50 ([3]; FIG. 14A/14B, GAL4-EcR(DEF)): ~0.33 µM

CC1(C)OC(=O)C=C1CC(O)C(C)(O)C1CCC2(O)C3=CC(=O)C4CC(O)C(O)CC4(C)C3CCC12C (stereo not drawn) [carthamosterone]
EC50 [1, 4]: > 33 µM
EC50 [2, 5]: > 33 µM
EC50 ([3]; FIG. 14A/14B, GAL4-EcR(DEF)): ~10 µM

C[C@@H]1C(=O)O[C@H](C)[C@H]1C[C@@H](O)[C@](C)(O)[C@H]1CC[C@@]2(O)C3=CC(=O)[C@@H]4C[C@@H](O)[C@@H](O)C[C@]4(C)[C@H]3CC[C@]12C [cyasterone]
EC50 [1, 4]: > 33 µM
EC50 [2, 5]: 1.53 µM
EC50 ([3]; FIG. 14A/14B, GAL4-EcR(DEF)): 1.82 µM

C[C@H]([C@H](O)CCC(C)(C)O)[C@H]1CC[C@@]2(O)C3=CC(=O)[C@@H]4C[C@@H](O)[C@@H](O)C[C@]4(C)[C@H]3CC[C@]12C [ecdysone]
EC50 [1, 4]: > 33 µM
EC50 [1, 6]: > 33 µM
EC50 [2, 5]: > 33 µM
EC50 [2, 7]: > 33 µM
EC50 ([3]; FIG. 14A/14B, GAL4-EcR(DEF)): 3.27 µM
EC50 ([3]; FIG. 16, GAL4-EcR (DEF)): 2.52 µM

CC(C)(O)CC[C@@H](O)[C@](C)(O)[C@H]1CC[C@@]2(O)C3=CC(=O)[C@@H]4C[C@@H](O)[C@@H](O)[C@@H](O)[C@]4(C)[C@H]3CC[C@]12C [integristerone A]
EC50 [1, 4]: > 33 µM
EC50 [2, 5]: ~12 µM
EC50 ([3]; FIG. 14A/14B, GAL4-EcR(DEF)): ~2 µM

CC(CC(O)C(C)(O)C1CCC2(O)C3=CC(=O)C4CC(O)C(O)CC4(C)C3CCC12C)C(C)(C)O (stereo not drawn) [makisterone A]
EC50 [1, 4]: ~20 µM
EC50 [2, 5]: ~10 µM
EC50 ([3]; FIG. 14A/14B, GAL4-EcR(DEF)): 0.117 µM

CCC(CC(O)C(C)(O)C1CCC2(O)C3=CC(=O)C4CC(O)C(O)CC4(C)C3CCC12C)C(C)(C)O (stereo not drawn) [makisterone C]
EC50 [1, 4]: ~5 µM
EC50 [2, 5]: ~4 µM
EC50 ([3]; FIG. 14A/14B, GAL4-EcR(DEF)): ~0.1 µM

CC(C)(O)CC[C@@H](O)[C@](C)(O)[C@H]1CC[C@@]2(O)C3=CC(=O)[C@]4(O)C[C@@H](O)[C@@H](O)C[C@]4(C)[C@H]3CC[C@]12C [polypodine B]
EC50 [1, 4]: ~2 µM
EC50 [1, 6]: 2.54 µM
EC50 [2, 5]: ~2 µM
EC50 [2, 7]: 4.35 µM
EC50 ([3]; FIG. 14A/14B, GAL4-EcR(DEF)): ~0.1 µM
EC50 ([3]; FIG. 16, GAL4-EcR (DEF)): 0.05 µM

CC(C)=CC[C@@H](O)[C@](C)(O)[C@H]1CC[C@@]2(O)C3=CC(=O)[C@@H]4C[C@@H](O)[C@@H](O)C[C@]4(C)[C@H]3CC[C@]12C [stachysterone C]
EC50 [1, 4]: 0.385 µM
EC50 [2, 5]: 0.672 µM
EC50 ([3]; FIG. 14A/14B, GAL4-EcR(DEF)): 0.013 µM

CCCCCC(=O)OC1CC2(C)C(C(C)(O)C(O)CCC(C)(C)O)CCC2(O)C2=CC(=O)C3CC(O)C(O)CC3(C)C21 (stereo not drawn) [turkesterone-11 a -hexanoate]
EC50 [1, 4]: > 33 µM
EC50 [2, 5]: > 33 µM
EC50 ([3]; FIG. 14A/14B, GAL4-EcR(DEF)): ~7 µM

CCC(=O)OC1CC2(C)C(C(C)(O)C(O)CCC(C)(C)O)CCC2(O)C2=CC(=O)C3CC(O)C(O)CC3(C)C21 (stereo not drawn) [turkesterone-11 a -propionate]
EC50 [1, 4]: > 33 µM
EC50 [2, 5]: > 33 µM
EC50 ([3]; FIG. 14A/14B, GAL4-EcR(DEF)): ~10 µM

CCCCCCCCCC(=O)OC1CC2(C)C(C(C)(O)C(O)CCC(C)(C)O)CCC2(O)C2=CC(=O)C3CC(O)C(O)CC3(C)C21 (stereo not drawn) [turkesterone-11a-decanoate]
EC50 [1, 4]: > 33 µM
EC50 [2, 5]: > 33 µM
EC50 ([3]; FIG. 14A/14B, GAL4-EcR(DEF)): > 33 µM

CC(C)(O)CC[C@@H](O)[C@](C)(O)[C@H]1CC[C@@]2(O)C3=CC(=O)[C@@H]4C[C@@H](O)[C@@H](O)C[C@]4(C)[C@H]3[C@H](O)C[C@]12C [turkesterone]
EC50 [1, 4]: ~15 µM
EC50 [2, 5]: ~12 µM
EC50 ([3]; FIG. 14A/14B, GAL4-EcR(DEF)): 1.35 µM

Source: US8536354B2, “Steroidal ligands and their use in gene switch modulation” (Intrexon Corporation, priority 2008, dated 2013)
